Several values for one entry are separate records, joined by “and”; a condition that tells them apart may be missing. Identical values can stand only once. Entries after “also recorded” stand apart in the source; their conditions may differ. Like-named read-outs stand apart in the source and are kept apart here. Marks after values point to notes of the source that are not given here.
Assays:
human Mat2A [1] = biological target: T1, human Mat2A (Homo sapiens, UniProt P31153); test: MESG EnzChek coupled phosphate detection assay (assay 1), Mat2A initial rates; assay type: biochemical; parameters: key to type of inhibition (product inhibition) / inhibition pattern (dead-end inhibition): U indicates uncompetitive inhibition; NC indicates noncompetitive inhibition; settings: for Km: average of five independent experiments ± SD
T1 construct: His6 (N, cleaved yes); TEV protease cleavage site (N, cleaved yes); made in house; host or cells: E. coli BL21 STAR (DE3)

human Mat2A [2] = biological target: T1, human Mat2A; test: LC-MS SAM detection assay (assay 2), Mat2A initial rates; assay type: biochemical; parameters: key to type of inhibition (product inhibition by phosphate): U indicates uncompetitive inhibition; NC indicates noncompetitive inhibition; settings: pH 7.5, 22 °C; for Km: Mat2A only, single experiment, three replicates ± SE; for Ki: read-out: inhibition constant Kis (product inhibition by phosphate)
Text: In all cases, initial velocities were obtained from the linear regions of the reaction progress curves (<200 s, Figures S3C and S5).
The LC–MS assay monitors SAM directly and was developed to confirm the kinetic parameters that were obtained in the phosphate coupled assay and to carry out product inhibition studies by Pi, which was not possible using the phosphate coupled assay. The amount of SAM produced was quantified using a standard curve (Figure S3F). Prior to LC–MS, 1:1 methanol/acetonitrile + 0.1% (v/v) formic acid was added to the samples. LC–MS was performed using an Agilent 1200 LC system fitted with a Cogent Diamond Hydride Type C silica column (2.1 × 150 mm, dead volume 315 μL). Solvent A was LC–MS grade H2O + 0.1% (v/v) formic acid. Solvent B was acetonitrile + 0.1% (v/v) formic acid. The gradient started at 85% B dropping to 5% B over 14 min. Flow rate was 0.4 mL/min. Mass spectrometry was performed using an Agilent Accurate Mass 6230 TOF apparatus in positive-ion mode. The doubly charged SAM ion was detected at an m/z of 200.0759.
Product and dead-end inhibition data showing competitive, noncompetitive, or uncompetitive patterns were fitted to eqs 2–4, respectively. [drawing 2] 2 [drawing 3] 3 [drawing 4] 4 where I is the inhibitor concentration; S is the concentration of the variable substrate; Km is the Michaelis constant for the variable substrate; and Kis and Kii are the slope and intercept inhibition constants, respectively.
Saturation kinetics data were fitted to eq 5. [drawing 5] 5

human Mat2A [3] = biological target: T1, human Mat2A; test: Isothermal titration calorimetry (ITC) binding to Mat2A; settings: for binding to Mat2A (ITC): in the absence of ATP
Protocol: Prior to performing ITC, proteins (approximately 1 mL volume) were dialyzed using D-Tube Dialyzers (Maxi 100–3000 μL, MWCO 6–8 kDa) (Novagen) against 1 L of buffer A for 2–4 h at 4 °C with agitation using a magnetic stirring bar. […] Titrations were performed at 20 °C. Protein concentrations were determined by A280 using a UV-2550 spectrophotometer. The protein and ligand concentrations that were used are indicated in the legends of Figures 5 and 6. ITC measurements were performed on a MicroCal PEAQ-ITC calorimeter (Malvern Panalytical). Data were analyzed using the MicroCal PEAQ-ITC analysis software supplied by the manufacturer using nonlinear regression with the One Set of Sites model. For each experiment, the heat produced or consumed associated with ligand dilution was measured and subtracted from the raw data.

Mat2A/Mat2B complex [4] = biological target: T2, Mat2A/Mat2B complex (Homo sapiens, UniProt P31153); test: Coupled phosphate detection assay (assay 1) with the Mat2A/Mat2B complex; assay type: biochemical; settings: for Km: Mat2A + Mat2B (250 nM Mat2A, 600 nM Mat2B), pH 7.5, 22 °C
T2 construct: His6 (N, cleaved yes); TEV protease cleavage site (N, cleaved yes); made in house; host or cells: E. coli BL21 STAR (DE3)

Mat2A [5] = system: T3, Mat2A; test: Stability assay: Mat2A activity after preincubation at 37 °C; assay type: biochemical, human
T3 construct: His6 (N, cleaved yes); TEV protease cleavage site (N, cleaved yes); made in house; host or cells: E. coli BL21 STAR (DE3)

Mat2A/Mat2B complex [6] = biological target: T2, Mat2A/Mat2B complex; test: Kinetic constants of Mat2A/Mat2B complex after preincubation at 37 °C; assay type: biochemical; settings: 60 nM Mat2A + 30 nM Mat2B preincubated 15 min at 37 °C; assay at pH 7.5, 22 °C; ATP 1.25 mM; read-out: Km(L-Met)
Mat2A [7] = system: T3, Mat2A; settings: cited from earlier work
Mat2A + Mat2B = system: Mat2A + Mat2B; parameters: method as in PMID 28553945; settings: after addition of Mat2B, cited from earlier work
Mat2B (Homo sapiens) = Mat2B (Homo sapiens) (UniProt Q9NZL9); settings: cited from earlier work
[8] = saturating Mat2B, ATP varied, saturating L-Met 600 μM
[9] = variable substrate ATP, saturating L-Met 0.6 mM
[10] = variable substrate L-Met, saturating ATP 0.5 or 1 mM

Nc1ncnc2c1ncn2[C@@H]1O[C@H](COP(=O)(O)OP(=O)(O)OP(=O)(O)O)[C@@H](O)[C@H]1O [ATP, adenosine 5′-triphosphate]
Ki (human Mat2A [1]; Mat2A only, dissociation constant of enzyme-ATP complex from eq 1, pH 7.5, 22 °C, read-out: Ki(ATP)): 349 ± 66 µM | Km (human Mat2A [1]; Mat2A only, pH 7.5, 22 °C, read-out: Km(ATP)): 50 ± 10 µM | Km (human Mat2A [2]; read-out: Km(ATP)): 55 ± 10 µM | Kd (human Mat2A [3]): 80 ± 30 µM | Km (Mat2A/Mat2B complex [4]; read-out: Km(ATP)): 50 ± 5 µM

CSCC[C@H](N)C(=O)O [L-Met, L-methionine]
Km (human Mat2A [1]; Mat2A only, pH 7.5, 22 °C, read-out: Km(L-Met)): 5 ± 2 µM | Km (human Mat2A [2]; read-out: Km(L-Met)): 8 ± 2 µM | binding to Mat2A (ITC) (human Mat2A [3]; ITC, 20 °C): No significant change in heat; also recorded: No binding | Km (Mat2A/Mat2B complex [4]; read-out: Km(L-Met)): 4 ± 1 µM | Km (Mat2A [5]; Mat2A only (60 nM) preincubated 15 min at 37 °C, assay at pH 7.5, 22 °C, ATP 1.25 mM, read-out: Km(L-Met)): 3.5 ± 1.3 µM | Km (Mat2A/Mat2B complex [6]): 3.9 ± 0.1 µM | Km (Mat2A [7]; without Mat2B, read-out: Km for L-Met): 14 µM | Km (Mat2A + Mat2B; read-out: Km for L-Met): 2.5 µM

NC1(C(=O)O)CCCC1 [L-cLeu, L-cycloleucine, reference compound]
extent of inhibition of Mat2A (human Mat2A [1]): fully inhibit | substrate activity for Mat2A (human Mat2A [1]): not a substrate | inhibition pattern (dead-end inhibition) (human Mat2A [1]; variable substrate ATP, nonsaturating L-Met = 0.02 mM, pH 7.5, 22 °C): U | Ki (human Mat2A [1]; variable substrate L-Met, nonsaturating ATP = 0.07 mM, pH 7.5, 22 °C, read-out: inhibition constant Kis (dead-end inhibition)): 160 µM | Ki (human Mat2A [1]; variable substrate L-Met, saturating ATP = 1 mM, pH 7.5, 22 °C, read-out: inhibition constant Kis (dead-end inhibition)): 290 µM | binding to Mat2A (ITC) (human Mat2A [3]; ITC, 20 °C): no significant change in heat | binding to Mat2A (ITC) (human Mat2A [3]; ITC, 20 °C, listed as Cycloleucine): No binding | Kd (human Mat2A [3]; ITC, 20 °C, in the presence of 2 mM ATP): 25 ± 10 µM

C[S+](CC[C@H](N)C(=O)[O-])C[C@H]1O[C@@H](n2cnc3c(N)ncnc32)[C@H](O)[C@@H]1O (stereo partly drawn) [SAM, S-adenosyl-L-methionine]
type of inhibition (product inhibition) (human Mat2A [1]; variable substrate ATP, nonsaturating L-Met (0.02 mM), pH 7.5, 22 °C): NC ^c | Ki (human Mat2A [1]; variable substrate ATP, nonsaturating L-Met (0.02 mM), pH 7.5, 22 °C, read-out: inhibition constant Kis (product inhibition)): 620 µM | type of inhibition (product inhibition) (human Mat2A [1]; variable substrate ATP, saturating L-Met 0.6 mM, pH 7.5, 22 °C): U ^b | type of inhibition (product inhibition) (human Mat2A [1]; variable substrate L-Met, nonsaturating ATP (0.07 mM), pH 7.5, 22 °C): NC ^c | Ki (human Mat2A [1]; variable substrate L-Met, nonsaturating ATP (0.07 mM), pH 7.5, 22 °C, read-out: inhibition constant Kis (product inhibition)): 250 µM | type of inhibition (product inhibition) (human Mat2A [1]; variable substrate L-Met, saturating ATP 0.5 or 1 mM, pH 7.5, 22 °C): NC ^b | Ki (human Mat2A [1]; variable substrate L-Met, saturating ATP 0.5 or 1 mM, pH 7.5, 22 °C, read-out: inhibition constant Kis (product inhibition)): 190 µM | Kii(SAM) (Mat2A/Mat2B complex [4]; [8]): 130 ± 40 µM | type of inhibition by SAM (Mat2A/Mat2B complex [4]; [8]): uncompetitive | increase in the potency of SAM inhibition in the presence of Mat2B (Mat2A/Mat2B complex [4]; versus Mat2A alone): 1.8 fold | IC50 (Mat2A [7]; without Mat2B, read-out: IC50 of product inhibition by SAM): ~300 µM | IC50 (Mat2A + Mat2B; read-out: IC50 of product inhibition by SAM): ~150 µM

O=P(O)(O)O [phosphate, inorganic phosphate]
inhibition constant Kii (product inhibition by phosphate) (human Mat2A [2]; [9]): Kii = 5740 ± 760 ^b μM | type of inhibition (product inhibition by phosphate) (human Mat2A [2]; [9]): NC ^b | Ki (human Mat2A [2]; [9]): 1290 µM | inhibition constant Kii (product inhibition by phosphate) (human Mat2A [2]; [10]): Kii = 4970 ± 770 ^b μM | type of inhibition (product inhibition by phosphate) (human Mat2A [2]; [10]): NC ^b | Ki (human Mat2A [2]; [10]): 1580 µM

Mat1A (from UniProt Q00266)
Kd (Mat2B (Homo sapiens)): 3 µM

Mat2A: recombinant full-length human methionine adenosyltransferase Mat2A (UniProt P31153)
time to 50% loss of activity (Mat2A [5]; 60 nM Mat2A preincubated in assay buffer at 37 °C, no substrates, no Mat2B): 2.3 min | kcat (Mat2A [5]; Mat2A only (60 nM) preincubated 15 min at 37 °C, assay at pH 7.5, 22 °C): 0.09 ± 0.005 ^b s^–1 | kcat reported by other groups (Mat2A [7]; different assay methods): 0.27 s^–1 and 0.35 s^–1

— paper PMC8638259 (Biochemistry, 2021)
